Values quoted from earlier work as cited in patent publication US20150267258A1, “BIOMARKERS FOR DETERMINING EFFECTIVE RESPONSE OF TREATMENTS OF HEPATOCELLULAR CARCINOMA (HCC) PATIENTS” (BAYER PHARMA AKTIENGESELLSCHAFT, priority 2012, published 2015).

Assays:
[1] = test system: metastatic colorectal cancer; conditions: patients with metastatic colorectal cancer
[2] = test system: lung cancer

Row | Structure (SMILES) | Overall survival [1] | Effectiveness in lung cancer [2]
1 | CNC(=O)c1cc(Oc2ccc(NC(=O)Nc3ccc(Cl)c(C(F)(F)F)c3)c(F)c2)ccn1 [Regorafenib, 4-[4-({[4-Chloro-3-(trifluoromethyl)phenyl]carbamoyl}amino)-3-fluorophenoxy]-N-methylpyridine-2-carboxamide] | increase the overall survival | –
2 | CNC(=O)c1cc(Oc2ccc(NC(=O)Nc3ccc(Cl)c(C(F)(F)F)c3)cc2)ccn1 [Sorafenib, 4-[4-[[4-chloro-3-(trifluoromethyl)phenyl]carbamoylamino]phenoxy]-N-methyl-pyridine-2-carboxamide] | – | effective in lung cancer
